Measurements: patent US5668152A, “Protein kinase C inhibitors” (priority 1995, dated 1997)
Read-outs that look alike come from different tables or passages of the source.

Assays:
[1] = molecular target: protein kinase C eta (Homo sapiens, UniProt P24723); assay: PKC Enzyme assay, eta isozyme; format: biochemical
Experimental: (§1) PKC enzymes=alpha, beta I, beta II, gamma, delta, epsilon, eta and zeta.
(§2) Assay components in a total volume of 250 μL are the following:
(§3) Vesicles consisting of 120 μg/mL phosphatidylserine (Avanti Polar Lipids) and sufficient diacylglycerol (Avanti Polar Lipids) to activate the enzyme to maximum activity in 20 mM HEPES buffer (Sigma, St. Louis, Mo.), pH 7.5, 940 μM calcium chloride (Sigma, St. Louis, Mo.) for assaying the alpha, beta I, beta II and gamma enzyme only, 1 mM EGTA for all the enzymes, 10 mM magnesium chloride (Sigma, St. Louis, Mo.) and 30 μM (gamma-32P) ATP (DuPont). For all the enzymes either histone type HL (Worthington) or myelin basic protein is used as substrate. The assay is started by addition of protein kinase C enzyme incubated at 30° C. for 10 minutes and stopped by adding 0.5 mL of cold trichloroacetic acid (Amresco) followed by 100 μL of 1 mg/mL bovine serum albumin (Sigma, St. Louis, Mo.). The precipitate is collected by vacuum filtration on glass fiber filters employing a TOMTEC™ filtration system and quantified by counting in a beta scintillation counter.

[2] = molecular target: protein kinase C beta-1 (Homo sapiens, UniProt P05771); assay: PKC Enzyme assay, beta I isozyme; format: biochemical
protein kinase C beta-1, sequence (P05771 whole entry): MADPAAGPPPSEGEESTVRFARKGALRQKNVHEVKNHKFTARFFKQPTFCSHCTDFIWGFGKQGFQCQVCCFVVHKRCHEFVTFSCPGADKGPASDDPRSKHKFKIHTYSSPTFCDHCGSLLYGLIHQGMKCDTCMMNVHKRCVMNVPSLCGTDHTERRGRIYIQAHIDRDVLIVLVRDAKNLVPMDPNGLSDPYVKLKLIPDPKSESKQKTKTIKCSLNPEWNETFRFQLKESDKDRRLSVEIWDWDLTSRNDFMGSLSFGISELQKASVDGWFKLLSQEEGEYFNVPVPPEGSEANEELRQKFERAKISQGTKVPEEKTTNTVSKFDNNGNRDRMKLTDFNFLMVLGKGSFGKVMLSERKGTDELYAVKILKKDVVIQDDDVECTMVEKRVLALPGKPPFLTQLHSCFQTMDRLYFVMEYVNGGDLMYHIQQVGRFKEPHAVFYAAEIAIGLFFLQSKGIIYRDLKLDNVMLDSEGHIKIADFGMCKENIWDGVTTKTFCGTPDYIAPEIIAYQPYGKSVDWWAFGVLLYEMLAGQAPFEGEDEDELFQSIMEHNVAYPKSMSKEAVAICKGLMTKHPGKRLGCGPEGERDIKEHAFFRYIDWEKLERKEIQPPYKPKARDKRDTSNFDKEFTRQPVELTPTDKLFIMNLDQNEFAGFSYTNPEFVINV
Experimental: as §1, §2, §3

[3] = molecular target: protein kinase C delta (Homo sapiens, UniProt Q05655); assay: biochemical
protein kinase C delta, sequence (Q05655 whole entry): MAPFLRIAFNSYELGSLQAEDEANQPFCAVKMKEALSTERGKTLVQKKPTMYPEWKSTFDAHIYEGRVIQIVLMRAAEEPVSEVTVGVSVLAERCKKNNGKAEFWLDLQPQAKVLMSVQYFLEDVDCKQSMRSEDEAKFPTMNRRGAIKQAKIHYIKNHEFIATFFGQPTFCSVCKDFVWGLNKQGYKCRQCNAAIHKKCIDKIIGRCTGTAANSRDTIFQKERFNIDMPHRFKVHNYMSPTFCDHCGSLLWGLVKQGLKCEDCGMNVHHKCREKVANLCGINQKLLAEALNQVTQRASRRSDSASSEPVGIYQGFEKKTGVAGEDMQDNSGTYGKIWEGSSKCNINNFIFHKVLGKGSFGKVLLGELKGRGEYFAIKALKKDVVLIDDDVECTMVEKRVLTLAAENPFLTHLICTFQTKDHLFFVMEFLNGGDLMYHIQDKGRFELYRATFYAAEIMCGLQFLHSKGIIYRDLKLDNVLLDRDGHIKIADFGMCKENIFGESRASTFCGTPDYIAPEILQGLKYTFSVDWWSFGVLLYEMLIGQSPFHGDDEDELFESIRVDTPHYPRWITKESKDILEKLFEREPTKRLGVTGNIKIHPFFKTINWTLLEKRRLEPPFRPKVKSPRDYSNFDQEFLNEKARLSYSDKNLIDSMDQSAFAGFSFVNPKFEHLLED
Experimental: as §1, §2, §3

[4] = molecular target: protein kinase C gamma (Homo sapiens, UniProt P05129); assay: PKC Enzyme assay, gamma isozyme; format: biochemical
Experimental: as §1, §2, §3

[5] = molecular target: protein kinase C alpha (Homo sapiens, UniProt P17252); assay: PKC Enzyme assay, alpha isozyme; format: biochemical
Experimental: as §1, §2, §3

[6] = molecular target: T1, protein kinase C zeta (Homo sapiens, UniProt Q05513); assay: PKC Enzyme assay, zeta isozyme; format: biochemical; conditions: PKC zeta; 30 μM ATP, 30° C., 10 minutes; read-out: IC50 ζ
T1 sequence (Q05513 1-592): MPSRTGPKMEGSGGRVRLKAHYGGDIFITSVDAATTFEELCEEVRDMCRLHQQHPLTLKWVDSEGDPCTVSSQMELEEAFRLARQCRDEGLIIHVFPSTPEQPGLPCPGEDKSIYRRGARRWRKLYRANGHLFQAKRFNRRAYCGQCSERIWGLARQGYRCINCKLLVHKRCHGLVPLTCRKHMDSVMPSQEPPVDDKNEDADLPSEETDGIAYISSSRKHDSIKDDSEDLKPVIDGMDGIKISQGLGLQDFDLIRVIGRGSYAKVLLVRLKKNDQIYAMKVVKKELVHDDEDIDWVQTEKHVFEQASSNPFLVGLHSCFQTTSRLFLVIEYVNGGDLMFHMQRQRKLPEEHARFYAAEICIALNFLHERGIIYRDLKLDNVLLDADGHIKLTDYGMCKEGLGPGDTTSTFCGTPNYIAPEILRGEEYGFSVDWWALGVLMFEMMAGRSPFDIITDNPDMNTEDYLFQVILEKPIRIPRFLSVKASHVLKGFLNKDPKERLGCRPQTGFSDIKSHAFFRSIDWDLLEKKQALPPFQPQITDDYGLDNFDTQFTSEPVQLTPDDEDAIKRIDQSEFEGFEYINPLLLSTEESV
Experimental: as §1, §2, §3

[7] = molecular target: protein kinase C beta-2 (Homo sapiens, UniProt P05771); assay: PKC Enzyme assay, beta II isozyme; format: biochemical
protein kinase C beta-2, sequence (P05771 1-673 isoform P05771-2): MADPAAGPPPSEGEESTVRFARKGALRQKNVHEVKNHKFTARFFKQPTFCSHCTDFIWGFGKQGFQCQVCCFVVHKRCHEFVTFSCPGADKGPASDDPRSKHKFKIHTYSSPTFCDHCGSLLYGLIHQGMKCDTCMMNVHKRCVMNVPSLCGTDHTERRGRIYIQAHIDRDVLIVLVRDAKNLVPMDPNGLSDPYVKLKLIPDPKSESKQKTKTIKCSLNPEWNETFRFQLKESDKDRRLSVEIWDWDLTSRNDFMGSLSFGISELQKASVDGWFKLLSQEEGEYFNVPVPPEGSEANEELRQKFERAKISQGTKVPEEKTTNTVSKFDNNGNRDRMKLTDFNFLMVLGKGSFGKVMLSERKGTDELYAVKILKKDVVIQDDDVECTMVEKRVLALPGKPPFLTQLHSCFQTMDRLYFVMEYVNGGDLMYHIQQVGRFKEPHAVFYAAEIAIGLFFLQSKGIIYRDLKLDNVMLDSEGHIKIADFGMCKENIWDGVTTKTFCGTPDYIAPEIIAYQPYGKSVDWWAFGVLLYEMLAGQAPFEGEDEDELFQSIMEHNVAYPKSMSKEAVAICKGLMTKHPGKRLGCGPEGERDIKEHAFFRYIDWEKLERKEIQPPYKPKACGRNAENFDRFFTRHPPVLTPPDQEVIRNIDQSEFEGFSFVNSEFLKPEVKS
Experimental: as §1, §2, §3

[8] = molecular target: T2, protein kinase C epsilon (Homo sapiens, UniProt Q02156); assay: PKC Enzyme assay, epsilon isozyme; format: biochemical
T2 sequence (Q02156 1-737): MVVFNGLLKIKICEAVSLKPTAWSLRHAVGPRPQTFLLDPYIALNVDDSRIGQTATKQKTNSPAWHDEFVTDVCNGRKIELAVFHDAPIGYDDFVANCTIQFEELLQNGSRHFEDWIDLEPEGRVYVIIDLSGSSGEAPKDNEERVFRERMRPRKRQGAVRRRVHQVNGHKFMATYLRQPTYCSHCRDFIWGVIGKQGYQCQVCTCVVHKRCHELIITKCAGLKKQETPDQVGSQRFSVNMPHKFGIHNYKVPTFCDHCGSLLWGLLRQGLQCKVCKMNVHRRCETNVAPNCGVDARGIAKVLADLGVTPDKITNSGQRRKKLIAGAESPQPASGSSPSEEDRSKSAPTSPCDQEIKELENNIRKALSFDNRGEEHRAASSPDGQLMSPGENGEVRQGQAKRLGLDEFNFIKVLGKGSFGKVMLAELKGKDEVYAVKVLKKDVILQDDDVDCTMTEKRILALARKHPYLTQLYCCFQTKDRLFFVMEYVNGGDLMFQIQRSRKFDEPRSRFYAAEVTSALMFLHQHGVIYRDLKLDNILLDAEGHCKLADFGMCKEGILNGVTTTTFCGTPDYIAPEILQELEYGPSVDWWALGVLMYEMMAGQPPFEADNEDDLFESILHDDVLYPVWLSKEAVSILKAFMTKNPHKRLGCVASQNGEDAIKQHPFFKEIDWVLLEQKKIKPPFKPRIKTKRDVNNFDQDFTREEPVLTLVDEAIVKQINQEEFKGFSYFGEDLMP
Experimental: as §1, §2, §3

[9] = PKC eta, 30 μM ATP, 30° C., 10 minutes, read-out: IC50 η
[10] = PKC beta-1, 30 μM ATP, 30° C., 10 minutes, read-out: IC50 β1
[11] = PKC delta, 30 μM ATP, 30° C., 10 minutes, read-out: IC50 δ
[12] = PKC gamma, 30 μM ATP, 30° C., 10 minutes, read-out: IC50 γ
[13] = PKC alpha, 30 μM ATP, 30° C., 10 minutes, read-out: IC50 α
[14] = PKC beta-2, 30 μM ATP, 30° C., 10 minutes, read-out: IC50 β2
[15] = PKC epsilon, 30 μM ATP, 30° C., 10 minutes, read-out: IC50 ε

protein kinase C eta, sequence (P24723 whole entry): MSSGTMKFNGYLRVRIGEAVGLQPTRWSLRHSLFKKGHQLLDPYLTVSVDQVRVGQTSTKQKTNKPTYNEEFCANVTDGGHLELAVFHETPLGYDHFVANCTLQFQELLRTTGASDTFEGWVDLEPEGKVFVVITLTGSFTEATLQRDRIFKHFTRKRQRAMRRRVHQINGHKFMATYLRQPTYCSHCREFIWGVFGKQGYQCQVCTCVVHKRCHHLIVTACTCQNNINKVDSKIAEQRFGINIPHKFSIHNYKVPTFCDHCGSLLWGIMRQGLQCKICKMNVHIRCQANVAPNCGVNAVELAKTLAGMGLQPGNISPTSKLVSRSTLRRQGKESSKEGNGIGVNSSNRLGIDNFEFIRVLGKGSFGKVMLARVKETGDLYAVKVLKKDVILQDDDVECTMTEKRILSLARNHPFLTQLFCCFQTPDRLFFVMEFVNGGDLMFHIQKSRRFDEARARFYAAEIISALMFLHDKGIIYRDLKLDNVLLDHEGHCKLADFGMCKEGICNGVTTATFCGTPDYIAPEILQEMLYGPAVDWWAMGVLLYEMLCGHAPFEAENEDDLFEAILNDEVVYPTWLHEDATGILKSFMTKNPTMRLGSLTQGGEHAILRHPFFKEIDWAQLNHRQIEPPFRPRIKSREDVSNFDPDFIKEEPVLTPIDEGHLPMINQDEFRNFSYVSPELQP

Structure (SMILES) | IC50 [1, 9] [nM] | IC50 [2, 10] [nM] | IC50 [3, 11] [nM] | IC50 [4, 12] [nM] | IC50 [5, 13] [nM] | IC50 [6] [nM] | IC50 [7, 14] [nM] | IC50 [8, 15] [nM] | IC50 [1] [nM] | IC50 [2] [nM] | IC50 [3] [nM] | IC50 [4] [nM] | IC50 [5] [nM] | IC50 [7] [nM] | IC50 [8] [nM]
Cn1cc(C2=C(c3cn(C4CCN(C(=N)N)CC4)c4ccccc34)C(=O)NC2=O)c2ccccc21 [Example 44, 3-[1-(1-carboxamidine-piperidin-4-yl)-indol-3-yl)-4-(1-methyl-indol-3-yl)-1-pyrrole-2,5-dione] | 5 | 5 | 100 | 82 | 42 | 4800 | 5 | 360 | – | – | – | – | – | – | –
Cn1cc(C2=C(c3cn(CCCCOC4CC(O)C(CN)O4)c4ccccc34)C(=O)NC2=O)c2ccccc21 (centres unmarked) [Example 54] | 2500 | 1100 | 7900 | 15000 | 6700 | 37000 | 340 | 4300 | – | – | – | – | – | – | –
Cn1cc(C2=C(c3cn(CCOC4C[C@H](N)[C@@H](CO)O4)c4ccccc34)C(=O)NC2=O)c2ccccc21 (some centres unmarked) [Example 63] | 140 | 130 | 1600 | 4000 | 1700 | 50000 | 49 | 3600 | – | – | – | – | – | – | –
O=C1NC(=O)C(c2cn(Cc3ccccc3)c3ccccc23)=C1c1c[nH]c2ccccc12 [Example 14] | 4500 | 1150 | 8800 | 25000 | 13500 | 34000 | 1140 | 30000 | – | – | – | – | – | – | –
Cn1cc(C2=C(c3cn(CCO[C@H]4O[C@H](CN)[C@H](O)[C@H](O)[C@H]4O)c4ccccc34)C(=O)NC2=O)c2ccccc21 [Example 65] | 3400 | 390 | 8400 | 30000 | 8100 | 47000 | – | – | – | – | – | – | – | – | –
Cn1cc(C2=C(c3c[nH]c4ccccc34)C(=O)NC2=O)c2ccccc21 [Example 12] | 520 | 81 | 1000 | 1250 | 1210 | 8000 | 86 | 900 | – | – | – | – | – | – | –
CCN1CCC(n2cc(C3=C(c4cn(C)c5ccccc45)C(=O)NC3=O)c3ccccc32)CC1 [Example 40, 3-[1-(1-Ethyl-piperidin-4-yl)-indol-3-yl]-4-(1-methyl-indol-3-yl)-pyrrole-2,5-dione] | 40 | 20 | 300 | 300 | 400 | – | 5 | 400 | – | – | – | – | – | – | –
CC(=O)OCC1(COC(C)=O)CCn2c(c(C3=C(c4cn(C)c5ccccc45)C(=O)NC3=O)c3ccccc32)C1 [Example 1, 3-[8,8-bis(acetoxymethylene)-6,7,8,9-tetrahydropyrido[1,2-a]indol-10-yl]-4-(1-methyl-3-indolyl)-1H-pyrrole-2,5-dione] | 121000 | 360 | 47000 | 38000 | 9800 | 50000 | 300 | 150000 | – | – | – | – | – | – | –
Cn1cc(C2=C(c3cn(C4CCN(C(=O)OC(C)(C)C)CC4)c4ccccc34)C(=O)NC2=O)c2ccccc21 [Example 6, 3-(1-[4-(1-t-butoxycarbonyl)-piperidinyl]-3-indolyl)-4-(1-methyl-3-indolyl)-1H-pyrrole-2,5-dione] | – | – | – | – | – | – | – | – | 300 | 220 | 7300 | 5300 | 6100 | 82 | 4400
Cn1cc(C2=C(c3cn(CCOC4OC(CN)C(O)C(O)C4O)c4ccccc34)C(=O)NC2=O)c2ccccc21 (centres unmarked) [Example 66] | 3000 | 240 | 4400 | 30000 | 9000 | 37000 | – | – | – | – | – | – | – | – | –
Cn1cc(C2=C(c3cn(C4CCNCC4)c4ccccc34)C(=O)NC2=O)c2ccccc21 [Example 52] | 200 | – | – | – | – | 4000 | – | 1000 | – | – | – | – | – | – | –
Cn1cc(C2=C(c3cn(C4CCN(Cc5ccccn5)CC4)c4ccccc34)C(=O)NC2=O)c2ccccc21 [Example 49] | – | – | – | 2000 | – | 8000 | – | 300 | – | – | – | – | – | – | –
Cn1cc(C2=C(c3cn(C4CCN(Cc5ccccc5)CC4)c4ccccc34)C(=O)NC2=O)c2ccccc21 [Example 4, 3-(1-[4-(1-benzyl)-piperidinyl]-3-indolyl)-4-(1-methyl-3-indolyl)-1H-pyrrole-2,5-dione] | 500 | 50 | 6000 | 7000 | 6000 | – | 30 | 4000 | – | – | – | – | – | – | –
CN(C)CCCn1cc(C2=C(c3cn(C)c4ccccc34)C(=O)NC2=O)c2ccccc21 [Example 13] | 470 | – | 930 | 1700 | – | 25000 | – | 3600 | – | 140 | – | – | – | 60 | –
Cn1cc(C2=C(c3cn(CCO[C@@H]4O[C@H](CN=[N+]=[N-])[C@H](O)[C@H](O)[C@H]4O)c4ccccc34)C(=O)NC2=O)c2ccccc21 [Example 57] | 4000 | 1600 | 9000 | – | 10000 | > 100000 | 360 | > 100000 | – | – | – | – | – | – | –
